Source: patent US20190233884A1 (University of Southern California, priority 2016, published 2019)

Test system: patients with refractory metastatic colorectal cancer (mCRC)
Assay: PFS, OS and disease control in the testing (validation) cohort of refractory mCRC patients receiving TAS-102 (n=129, Italy), by baseline characteristics, SNP genotype and toxicity
Format: in vivo, human
Settings: for HR OS (95% CI) / HR PFS (95% CI): ATM rs609429 Any G vs C/C (Ref.)
Description: All patients underwent the treatment in salvage-line setting. […]
(§1) Genomic DNA was extracted from peripheral whole blood in patients of all cohorts using the QIAmp Kit (Qiagen, Valencia, Calif., USA) according to the manufacturer's protocol (www.qiagen.com). The candidate SNPs were genotyped using PCR-based direct DNA sequence analysis by ABI 3100A Capillary Genetic Analyzer and Sequencing Scanner v1.0 (Applied Biosystems). Amplification of extracted DNA was carried out using both forward and reverse primers for each gene polymorphism as shown in Table 1. […] The investigators analyzing SNPs were blinded to the clinical data of the study patients.
The primary endpoint in this study was progression-free survival (PFS), and the secondary endpoints were overall survival (OS) and disease control rate (DCR). PFS was calculated from the date of starting treatment to the first observation of disease progression or death from any cause. If a patient had no disease progression or death, PFS was censored at the date of last follow up. OS was calculated from the date of starting treatment until the date of death from any cause or the date of the last follow-up, at which point OS was censored. The disease control rate (DCR) was defined as the proportion of patients who achieved a stable disease (SD) or […] according to RECISTv1.1. Chi-square test was used to examine the difference in baseline patient characteristics among the three cohorts. Allelic distribution of all SNPs by ethnicity for deviation from Hardy-Weinberg equilibrium and the allelic frequencies of SNPs were tested using the Chi-square tests with one degree of freedom. The associations between candidate SNPs and disease control, and toxicities were examined using contingency tables and Fisher's exact test. The associations of SNPs with PFS and OS were analysed using Kaplan-Meier curves and the log-rank test. Because the true mode of inheritance of candidate SNPs was not established yet, a codominant or dominant genetic model if appropriate was considered.
All patients underwent the treatment in salvage-line setting. […] In all patients, adverse events were graded according to the Common Terminology Criteria for Adverse Events, version 4.0. […]
as §1, with “tested” for “genotyped”, “Biosystems).” for “Biosystems). Amplification of extracted DNA was carried out using both forward and reverse primers for each gene polymorphism as shown in Table 1.”, “data.” for “data of the study patients.”
The primary endpoint in this study was progression-free survival (PFS), and the secondary endpoints were overall survival (OS) and disease control rate (DCR).

[1] = testing cohort, hENT1 rs750370 A/A
[2] = testing cohort, hENT1 rs750370 A/G
[3] = testing cohort, hENT1 rs750370 A/G vs A/A
[4] = testing cohort, hENT1 rs750370 Any G
[5] = testing cohort, hENT1 rs750370 Any G vs A/A
[6] = testing cohort, hENT1 rs750370 G/G
[7] = testing cohort, hENT1 rs750370 G/G vs A/A
[8] = testing cohort, hENT1 rs760370, multivariable adjusted for age group, liver metastasis, ECOG, previous anti-EGFR
[9] = testing cohort, hENT1 rs760370 A/A
[10] = testing cohort, hENT1 rs760370 any G allele
[11] = testing cohort, hENT1 rs760370 any G vs A/A, univariate
[12] = testing cohort, hENT1 rs9394992 Any T
[13] = testing cohort, hENT1 rs9394992 Any T vs C/C
[14] = testing cohort, hENT1 rs9394992 C/C
[15] = testing cohort, hENT1 rs9394992 C/T
[16] = testing cohort, hENT1 rs9394992 C/T vs C/C
[17] = testing cohort, hENT1 rs9394992 T/T
[18] = testing cohort, hENT1 rs9394992 T/T vs C/C
[19] = testing cohort, hENT1370_OCT019 Excellent
[20] = testing cohort, hENT1370_OCT019 Fair
[21] = testing cohort, hENT1370_OCT019 Fair vs Poor
[22] = testing cohort, hENT1370_OCT019 Good
[23] = testing cohort, hENT1370_OCT019 Good and Excellent combined
[24] = testing cohort, hENT1370_OCT019 Good and Excellent combined vs Poor
[25] = testing cohort, hENT1370_OCT019 Poor
[26] = testing/validation cohort, grade 3≤ neutropenia
[27] = testing/validation cohort, grade 3≤ neutropenia vs less than grade 3
[28] = testing/validation cohort, neutropenia less than grade 3
[29] = validation cohort, ATM rs609429 Any G
[30] = validation cohort, multivariable
[31] = validation cohort, ATM rs609429 C/C

Trifluridine/tipiracil [TAS-102]
Disease Control Rate SD [1]: 9 (20%) | Overall Survival Median, months (95% CI) [1]: 3.9 (3.3, 5.5) months | Progression-free Survival Median, months (95% CI) [1]: 1.9 (1.7, 2.0) months | Disease Control Rate PD [2]: 42 (66%) | Disease Control Rate SD [2]: 22 (34%) | Progression-free Survival Median, months (95% CI) [2]: 2.1 (1.9, 2.5) months | Overall Survival HR (95% CI) multivariate [3]: 0.50 (0.28, 0.89) | Overall Survival HR (95% CI) univariate [3]: 0.48 (0.27, 0.85) | Progression-free Survival HR (95% CI) multivariate [3]: 0.58 (0.37, 0.89) | Progression-free Survival HR (95% CI) univariate [3]: 0.59 (0.38, 0.90) | Disease Control Rate PD [4]: 55 (66%) | Disease Control Rate SD [4]: 28 (34%) | Overall Survival Median, months (95% CI) [4]: 9.0 (5.1, 9.0+) months | Progression-free Survival Median, months (95% CI) [4]: 2.1 (1.9, 2.4) months | Overall Survival HR (95% CI) multivariate [5]: 0.54 (0.31, 0.93) | Overall Survival HR (95% CI) univariate [5]: 0.50 (0.29, 0.86) | Progression-free Survival HR (95% CI) multivariate [5]: 0.65 (0.43, 0.98) | Progression-free Survival HR (95% CI) univariate [5]: 0.64 (0.43, 0.95) | Disease Control Rate PD [6]: 13 (68%) | Disease Control Rate SD [6]: 6 (32%) | Overall Survival Median, months (95% CI) [6]: 9.0 (2.9, 9.0+) months | Progression-free Survival Median, months (95% CI) [6]: 2.0 (1.6, 2.5) months | Overall Survival HR (95% CI) multivariate [7]: 0.78 (0.31, 1.99) | Overall Survival HR (95% CI) univariate [7]: 0.58 (0.24, 1.41) | Progression-free Survival HR (95% CI) multivariate [7]: 1.00 (0.55, 1.80) | Progression-free Survival HR (95% CI) univariate [7]: 0.86 (0.48, 1.55) | HR for OS [8]: 0.54 | HR for PFS [8]: 0.65 | OS [9]: 3.9 months | PFS [9]: 1.9 months | OS [10]: 9.0 months | PFS [10]: 2.1 months | HR for OS [11]: 0.50 | HR for PFS [11]: 0.64 | Disease Control Rate PD [12]: 50 (71%) | Disease Control Rate SD [12]: 20 (29%) | Overall Survival Median, months (95% CI) [12]: 5.2 (3.7, 9.0+) months | Progression-free Survival Median, months (95% CI) [12]: 2.0 (1.9, 2.4) months | Overall Survival HR (95% CI) multivariate [13]: 1.19 (0.69, 2.07) | Overall Survival HR (95% CI) univariate [13]: 1.31 (0.76, 2.27) | Progression-free Survival HR (95% CI) multivariate [13]: 0.81 (0.54, 1.19) | Progression-free Survival HR (95% CI) univariate [13]: 0.92 (0.62, 1.35) | Disease Control Rate PD [14]: 41 (71%) | Disease Control Rate SD [14]: 17 (29%) | Overall Survival Median, months (95% CI) [14]: 5.8 (4.7, 8.8+) months | Progression-free Survival Median, months (95% CI) [14]: 2.0 (1.9, 2.1) months | Disease Control Rate PD [15]: 41 (71%) | Disease Control Rate SD [15]: 17 (29%) | Overall Survival Median, months (95% CI) [15]: 4.4 (3.6, 9.0+) months | Progression-free Survival Median, months (95% CI) [15]: 2.0 (1.8, 2.3) months | Overall Survival HR (95% CI) multivariate [16]: 1.23 (0.69, 2.18) | Overall Survival HR (95% CI) univariate [16]: 1.38 (0.78, 2.43) | Progression-free Survival HR (95% CI) multivariate [16]: 0.81 (0.54, 1.22) | Progression-free Survival HR (95% CI) univariate [16]: 0.92 (0.61, 1.38) | Disease Control Rate PD [17]: 9 (75%) | Disease Control Rate SD [17]: 3 (25%) | Progression-free Survival Median, months (95% CI) [17]: 2.5 (0.4, 3.9) months | Overall Survival HR (95% CI) multivariate [18]: 1.02 (0.38, 2.71) | Overall Survival HR (95% CI) univariate [18]: 1.06 (0.40, 2.79) | Progression-free Survival HR (95% CI) multivariate [18]: 0.79 (0.39, 1.58) | Progression-free Survival HR (95% CI) univariate [18]: 0.90 (0.45, 1.78) | Disease Control Rate PD [19]: 38 (64%) | Disease Control Rate SD [19]: 21 (36%) | Disease Control Rate PD [20]: 25 (81%) | Disease Control Rate SD [20]: 6 (19%) | Overall Survival Median, months (95% CI) [20]: 4.0 (3.1, 8.8) months | Progression-free Survival Median, months (95% CI) [20]: 1.9 (1.6, 2.0) months | Overall Survival HR (95% CI) multivariate [21]: 0.58 (0.25, 1.37) | Overall Survival HR (95% CI) univariate [21]: 0.77 (0.34, 1.75) | Progression-free Survival HR (95% CI) multivariate [21]: 1.13 (0.57, 2.24) | Progression-free Survival HR (95% CI) univariate [21]: 1.24 (0.64, 2.40) | Disease Control Rate PD [22]: 17 (71%) | Disease Control Rate SD [22]: 7 (29%) | Overall Survival Median, months (95% CI) [23]: 9.0 (5.1, 9.0) months | Progression-free Survival Median, months (95% CI) [23]: 2.1 (1.9, 2.4) months | Overall Survival HR (95% CI) multivariate [24]: 0.37 (0.17, 0.80) | Overall Survival HR (95% CI) univariate [24]: 0.42 (0.20, 0.90) | Progression-free Survival HR (95% CI) multivariate [24]: 0.71 (0.38, 1.30) | Progression-free Survival HR (95% CI) univariate [24]: 0.73 (0.40, 1.34) | Disease Control Rate PD [25]: 11 (79%) | Disease Control Rate SD [25]: 3 (21%) | Overall Survival Median, months (95% CI) [25]: 3.6 (2.3, 8.5) months | Progression-free Survival Median, months (95% CI) [25]: 2.0 (1.7, 2.4) months | Progression-free Survival Median, months (95% CI) (testing cohort, per OCT2 rs316000 genotype (row), OCT2 rs316000 A/A genotype): 2.0 (1.9, 2.1) months | Progression-free Survival Median, months (95% CI) (testing cohort, per OCT2 rs316000 genotype (row), OCT2 rs316000 A/G genotype): 1.9 (1.7, 2.4) months | Progression-free Survival Median, months (95% CI) (testing cohort, per OCT2 rs316000 genotype (row), OCT2 rs316000 Any G genotype): 1.9 (1.8, 2.6) months | Progression-free Survival Median, months (95% CI) (testing cohort, per OCT2 rs316000 genotype (row), OCT2 rs316000 G/G genotype): 3.7 (1.7, 6.8+) months | OS [26]: 8.8 months | PFS [26]: 2.3 months | HR for OS [27]: 0.21 | HR for PFS [27]: 0.50 | OS [28]: 3.7 months | PFS [28]: 1.9 months | Disease Control CR/PR/SD, patients n (%) [29]: 26 (33%) | Median PFS (95% CI) [29]: 2.0 (1.9, 2.3) months | PD, patients n (%) [29]: 52 (67%) | HR OS (95% CI) [30]: 0.80 (0.45, 1.41) | HR PFS (95% CI) [30]: 0.85 (0.56, 1.29) | HR OS (95% CI) (validation cohort, univariate): 0.73 (0.43, 1.25) | HR PFS (95% CI) (validation cohort, univariate): 0.78 (0.52, 1.16) | Disease Control CR/PR/SD, patients n (%) [31]: 11 (22%) | Median OS (95% CI) [31]: 4.4 (3.7, 9.0+) months | Median PFS (95% CI) [31]: 1.9 (1.8, 2.3) months | OS [31]: 4.4 months | PD, patients n (%) [31]: 39 (78%) | PFS [31]: 1.9 months
